From US20130096105A1, “ArylSulfonamide Based Matrix Metalloprotease Inhibitors” (NOVARTIS AG, priority 2008, published 2013)

What was measured:
[1] = biological target: T1, Gelatinase (MMP-2) (Homo sapiens, UniProt P08253); test: Gelatinase (MMP-2) inhibitory activity, fluorogenic peptide substrate cleavage; assay type: biochemical; conditions: read-out: MMP02 IC50
T1 sequence (P08253 110-660): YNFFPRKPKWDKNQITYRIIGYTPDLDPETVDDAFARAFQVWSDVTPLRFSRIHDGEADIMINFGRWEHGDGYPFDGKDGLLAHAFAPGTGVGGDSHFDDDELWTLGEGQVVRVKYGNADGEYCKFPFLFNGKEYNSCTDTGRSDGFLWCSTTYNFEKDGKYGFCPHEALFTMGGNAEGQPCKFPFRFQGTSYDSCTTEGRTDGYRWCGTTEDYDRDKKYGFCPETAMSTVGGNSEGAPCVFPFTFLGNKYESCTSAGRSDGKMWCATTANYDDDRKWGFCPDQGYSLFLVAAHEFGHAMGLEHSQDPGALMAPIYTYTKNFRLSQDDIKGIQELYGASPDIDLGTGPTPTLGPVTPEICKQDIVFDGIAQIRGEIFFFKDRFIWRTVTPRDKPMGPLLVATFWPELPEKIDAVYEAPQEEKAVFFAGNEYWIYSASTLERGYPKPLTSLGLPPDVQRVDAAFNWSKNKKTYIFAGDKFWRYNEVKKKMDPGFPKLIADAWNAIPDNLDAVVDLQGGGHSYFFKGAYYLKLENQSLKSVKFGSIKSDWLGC
Protocol: (§1) Gelatinase (MMP-2) inhibitory activities can be determined as follows: Stock solutions of substrate (MCA-Lys-Pro-Leu-Gly-Leu-Dpa-Ala-Arg-NH2) are prepared in DMSO at a concentration of 1.4 mM. Stock solutions of inhibitors (0.03 μM-3 mM) are also prepared in DMSO. The inhibitors are diluted into the assay solutions, and the controls use an equal volume of DMSO so that the final DMSO concentration from the inhibitor and substrate dilutions in all assays is 1.0%. Assays are performed in an assay buffer (100 mM sodium chloride, 10 μM ZnCl. Sub 2, 10 mM CaCl2, 100 mM Tris-Cl pH7.5, 0.05% Brij-35), containing 1.0% DMSO from the substrate and inhibitor additions. The substrate concentration used in the assays is 5 μM. The assays are carried out at 20-25° C. The fluorescence changes, as a result of substrate cleavage, are monitored using an excitation wavelength of 325 nm and an emission wavelength of 405 nm. The reaction mixtures are added in duplicate into appropriate wells of a 384-well assay plate. The reaction mixtures are preincubated with the inhibitors for 60 minutes The reactions are started by the addition of MMP substrate, and the fluorescence intensity changes are measured after 60 minutes The apparent enzyme activity in the presence of an inhibitor is then compared with that in the absence of any inhibitor to determine the inhibition effect of the inhibitor. These techniques are within the knowledge of one skilled in the art. The inhibition results are expressed as the inhibitor concentrations required to effect 50% inhibition (IC50) of the enzyme activity, as compared with the control (non-inhibited) reactions.

[2] = biological target: Collagenase-3 (MMP-13) (Homo sapiens, UniProt P45452); test: Collagenase-3 (MMP-13) inhibitory activity, fluorogenic peptide substrate cleavage; assay type: biochemical; conditions: read-out: MMP13 IC50
Protocol: as §1
Collagenase-3 (MMP-13) inhibitory activity is determined as described above. Recombinant pro-collagenase-3 is activated with 1 mM APMA, and stored in the assay buffer after extensive dialysis in the assay buffer.

Row | Structure (SMILES) | IC50 [1] | IC50 [2]
1 | NS(=O)(=O)c1cc(C(=O)c2ccc(-c3ccsc3)cc2)ccc1Cl [Example 40, 2-Chloro-5-(4-thiophen-3-yl-benzoyl)-benzenesulfonamide] | > 30 µM | 7.06 µM
2 | NS(=O)(=O)c1cc(C(=O)c2ccc(-c3ccnc(Cl)c3)cc2)ccc1Cl [Example 43, 2-Chloro-5-[4-(2-chloro-pyridin-4-yl)-benzoyl]-benzenesulfonamide] | 0.3 µM | 0.38 µM
3 | N#Cc1ccc(C(=O)c2ccc(Cl)c(S(N)(=O)=O)c2)cc1 [Example 44, 2-Chloro-5-(4-cyano-benzoyl)-benzenesulfonamide] | 0.62 µM | 0.56 µM
4 | Cc1ccc(C(=O)c2ccc(Cl)c(S(N)(=O)=O)c2)c(Br)c1 [Example 45, 5-(2-Bromo-4-methyl-benzoyl)-2-chloro-benzenesulfonamide] | 0.053 µM | 0.08 µM
5 | Cc1cc(Br)ccc1C(=O)c1ccc(Cl)c(S(N)(=O)=O)c1 [Example 46, 5-(4-Bromo-2-methyl-benzoyl)-2-chloro-benzenesulfonamide] | 0.15 µM | 0.21 µM
6 | COc1ccc(C(=O)c2ccc(Cl)c(S(N)(=O)=O)c2)c(OC)c1 [Example 48, 2-Chloro-5-(2,4-dimethoxy-benzoyl)-benzenesulfonamide] | > 30 µM | 25.3 µM
7 | NS(=O)(=O)c1cc(C(=O)c2ccccc2)ccc1Cl [Example 49, 5-Benzoyl-2-chloro-benzenesulfonamide] | > 30 µM | 24.8 µM
8 | NS(=O)(=O)c1cc(C(=O)c2ccc(F)cc2)ccc1Cl [Example 51, 2-Chloro-5-(4-fluoro-benzoyl)-benzenesulfonamide] | 14.6 µM | 18.7 µM
9 | NS(=O)(=O)c1cc(C(=O)c2ccc(O)cc2)ccc1Cl [Example 55, 2-Chloro-5-(4-hydroxy-benzoyl)-benzenesulfonamide] | 25.5 µM | 27.5 µM
10 | CC(C)COc1ccc(C(=O)c2ccc(Cl)c(S(N)(=O)=O)c2)cc1 [Example 58, 2-Chloro-5-(4-isobutoxy-benzoyl)-benzenesulfonamide] | > 30 µM | 24.2 µM
11 | NS(=O)(=O)c1cc(C(=O)c2ccc(-c3ccccc3)cc2)ccc1Cl [Example 59, 5-(Biphenyl-4-carbonyl)-2-chloro-benzenesulfonamide] | 1.16 µM | 2.63 µM
12 | Cc1ccc(-c2ccc(C(=O)c3ccc(Cl)c(S(N)(=O)=O)c3)cc2)cc1 [Example 61, 2-Chloro-5-(4′-methyl-biphenyl-4-carbonyl)-benzenesulfonamide] | 1.1 µM | 1.02 µM

Continued, values first:

Row | IC50 [1] | IC50 [2] | Structure (SMILES)
13 | 6.89 µM | 0.84 µM | NS(=O)(=O)c1cc(C(=O)c2ccc(C(=O)NCc3ccccc3)cc2)ccc1Cl [Example 35, N-Benzyl-4-(4-chloro-3-sulfamoyl-benzoyl)-benzamide]
14 | 14.9 µM | 8.54 µM | NS(=O)(=O)c1cc(C(=O)c2ccc(C(=O)NCCc3ccccn3)cc2)ccc1Cl [Example 36, 4-(4-Chloro-3-sulfamoyl-benzoyl)-N-(2-pyridin-2-yl-ethyl)-benzamide]
15 | 22.8 µM | 8.9 µM | NS(=O)(=O)c1cc(C(=O)c2ccc(C(=O)NCCCCc3ccccc3)cc2)ccc1Cl [Example 37, 4-(4-Chloro-3-sulfamoyl-benzoyl)-N-(4-phenyl-butyl)-benzamide]
16 | 29.1 µM | 21.3 µM | CC(C)(C)NC(=O)c1ccc(C(=O)c2ccc(Cl)c(S(N)(=O)=O)c2)cc1 [Example 52, N-tert-Butyl-4-(4-chloro-3-sulfamoyl-benzoyl)-benzamide]
17 | 23.4 µM | 27.1 µM | NS(=O)(=O)c1cc(C(=O)c2ccc(C(=O)NCCc3ccccc3)cc2)ccc1Cl [Example 54, 4-(4-Chloro-3-sulfamoyl-benzoyl)-N-phenethyl-benzamide]
